In brackets after ≈: the same amount, converted by molar mass. Where two headings read alike, the source gives them in different places.
What was measured:
Type in all cases: cell-based
[1] = system: Pseudomonas aeruginosa UI-18: Wild-type (PA-7); assay: MIC determination (CLSI), PA-7; details: for MIC: Pseudomonas aeruginosa
Method in brief: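 MIC by dilution method per CLSI M7-A7 and M100-S18 guidelines. Strain: wild-type Pseudomonas aeruginosa UI-18.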

[2] = system: Escherichia coli EC-1: VOGEL, mouse virulent; assay: MIC determination (CLSI), EC-1; details: for MIC: Escherichia coli
Method in brief: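 E. coli Vogel, a mouse-virulent strain (EC-1), was tested. MICs were set by dilution susceptibility testing per CLSI standards M7-A7/M100-S18.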

[3] = system: Acinetobacter baumanii/haemolyticus: Multidrug-resistant clinical isolate (AB-3167); assay: MIC determination (CLSI), AB-3167; details: for MIC: Acinetobacter baumannii
Method in brief: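 Multidrug-resistant clinical isolate AB-3167 (A. baumannii/haemolyticus) tested for minimum inhibitory concentration following CLSI dilution susceptibility standards M7-A7 and M100-S18.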

[4] = system: Klebsiella pneumoniae: Ciprofloxacin-resistant isolate, ESBL, clinical isolate (KP-3700); assay: MIC determination (CLSI), KP-3700
Method in brief: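 MIC measured by broth dilution according to CLSI M7-A7 and M100-S18 standards. Test organism was a ciprofloxacin-resistant, ESBL-expressing clinical isolate.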

[5] = Table 1, MIC, read-out: PA-7 (MIC)
[6] = Table 1, MIC, read-out: AB-3167 (MIC)
[7] = Pseudomonas aeruginosa UI-18 (PA-7)
[8] = Acinetobacter baumanii/haemolyticus AB-3167
[9] = Pseudomonas aeruginosa UI-18 wild-type PA-7
[10] = Escherichia coli EC-1 VOGEL, mouse virulent
[11] = Acinetobacter baumanii/haemolyticus multidrug-resistant clinical isolate AB-3167

Compound	MIC ([1]; Table 3, read-out: PA-7 MIC)	MIC ([2]; read-out: EC-1 MIC)	MIC ([3]; Table 3, read-out: AB-3167 MIC)	KP-3700 MIC [4]	PA-7 MIC [1, 9]	EC-1 MIC [2, 10]	AB-3167 MIC [3, 11]	also measured
CC(CCc1ccc(OCCC2CCCCC2)cc1)(C(=O)NO)S(C)(=O)=O (stereo not drawn) [Example 314, 4-[4-(2-cyclohexylethoxy)phenyl]-N-hydroxy-2-methyl-2-(methylsulfonyl)butanamide]	16 µg/mL (≈ 40.2 µM)	16 µg/mL (≈ 40.2 µM)	2 µg/mL (≈ 5.03 µM)	≧64 mg/L	–	–	–	–
CC(CCc1ccc(OCCCOCc2ccccc2)cc1)(C(=O)NO)S(C)(=O)=O (stereo not drawn) [Example 243, 4-{4-[3-(benzyloxy)propoxy]phenyl}-N-hydroxy-2-methyl-2-(methylsulfonyl)butanamide]	≥ 64 µg/mL	32 µg/mL (≈ 73.5 µM)	32 µg/mL (≈ 73.5 µM)	≧64 mg/L	–	–	–	–
CC(CCc1ccc(OCc2nc3ccccc3s2)cc1)(C(=O)NO)S(C)(=O)=O (stereo not drawn) [Example 277, 4-[4-(1,3-benzothiazol-2-ylmethoxy)phenyl]-N-hydroxy-2-methyl-2-(methylsulfonyl)butanamide]	32 µg/mL (≈ 73.6 µM)	4 µg/mL (≈ 9.21 µM)	≥ 64 µg/mL	16 µg/mL	–	–	–	–
CC(CCc1ccc(OCCC2CC2)cc1)(C(=O)NO)S(C)(=O)=O (racemic) [Example 17, (+/−)-4-[4-(2-Cyclopropylethoxy)phenyl]-N-hydroxy-2-methyl-2-(methylsulfonyl)butanamide]	–	–	–	≧64 mg/L	–	–	–	MIC [1, 5]: 8 µg/mL (≈ 22.5 µM); MIC ([2]; read-out: EC-1: (MIC)): 32 µg/mL (≈ 90 µM); MIC [3, 6]: 32 µg/mL (≈ 90 µM)
CC(CCc1ccc(-c2ccc(C[C@@H](N)C(=O)O)cc2)cc1)(C(=O)NO)S(C)(=O)=O (stereo partly drawn) [Example 232]	–	–	–	≧64 mg/L	–	–	–	PA-7 MIC [1, 7]: 32 µg/mL; EC-1 MIC ([2]; Escherichia coli EC-1): ≧64 mg/L; AB-3167 MIC [3, 8]: ≧64 mg/L
CC(CCc1ccc(OCc2ccc(C#N)cc2)cc1)(C(=O)NO)S(C)(=O)=O (stereo not drawn) [Example 233, 4-{4-[(4-cyanobenzyl)oxy]phenyl}-N-hydroxy-2-methyl-2-(methylsulfonyl)butanamide]	4 µg/mL (≈ 9.94 µM)	4 µg/mL (≈ 9.94 µM)	≥ 64 µg/mL	16 µg/mL	–	–	–	–
COc1cc(CCC(C)(C(=O)NO)S(C)(=O)=O)ccc1-c1ccc(F)cc1 (stereo not drawn) [Example 20, 4-(4′-Fluoro-2-methoxybiphenyl-4-yl)-N-hydroxy-2-methyl-2-(methylsulfonyl)butanamide]	–	–	–	8 µg/mL	–	–	–	MIC [1, 5]: 16 µg/mL (≈ 40.5 µM); MIC ([2]; read-out: EC-1: (MIC)): 1 µg/mL (≈ 2.53 µM); MIC [3, 6]: ≥ 64 µg/mL
CC(CCc1ccc(-c2ccc(Cl)cc2Cl)cc1)(C(=O)NO)S(C)(=O)=O (racemic) [Example 70]	–	–	–	2 µg/mL	1 µg/mL	1 µg/mL	32 µg/mL	–
CC(CCc1ccc(-c2ccc(C[C@H](N)C(=O)O)cc2)cc1)(C(=O)NO)S(C)(=O)=O (stereo partly drawn) [Example 231]	–	–	–	≧64 mg/L	–	–	–	PA-7 MIC [1, 7]: 16 µg/mL; EC-1 MIC ([2]; Escherichia coli EC-1): 32 µg/mL; AB-3167 MIC [3, 8]: ≧64 mg/L
Cc1cc(-c2ccc(CCC(C)(C(=O)NO)S(C)(=O)=O)cc2)ccc1O (stereo not drawn) [Example 137]	–	–	–	32 µg/mL	4 µg/mL	16 µg/mL	≧64 mg/L	–
CC(CCc1ccc(-c2ccoc2)cc1)(C(=O)NO)S(C)(=O)=O (stereo not drawn) [Example 95]	–	–	–	16 µg/mL	4 µg/mL	16 µg/mL	≧64 mg/L	–
CC(CCc1ccc(-c2ccccc2O)cc1)(C(=O)NO)S(C)(=O)=O (stereo not drawn) [Example 8, N-Hydroxy-4-(2′-hydroxybiphenyl-4-yl)-2-methyl-2-(methylsulfonyl)butanamide]	–	–	–	≧64 mg/L	–	–	–	MIC [1, 5]: 8 µg/mL (≈ 22 µM); MIC ([2]; read-out: EC-1: (MIC)): ≥ 64 µg/mL; MIC [3, 6]: ≥ 64 µg/mL
CC(CCc1ccc(-c2ccc(OCCO)c(F)c2F)cc1)(C(=O)NO)S(C)(=O)=O (stereo not drawn) [Example 147]	–	–	–	8 µg/mL	1 µg/mL	2 µg/mL	32 µg/mL	–
CC(CCc1ccc(OCc2nc(Cc3cc(F)ccc3F)no2)cc1)(C(=O)NO)S(C)(=O)=O (stereo not drawn) [Example 256, 4-(4-{[3-(2,5-difluorobenzyl)-1,2,4-oxadiazol-5-yl]methoxy}phenyl)-N-hydroxy-2-methyl-2-(methylsulfonyl)butanamide]	≥ 64 µg/mL	32 µg/mL (≈ 64.6 µM)	≥ 64 µg/mL	≧64 mg/L	–	–	–	–
CC(CCc1ccc(-c2ccc(C(N)=O)cc2)cc1)(C(=O)NO)S(C)(=O)=O (stereo not drawn) [Example 96]	–	–	–	≧64 mg/L	8 µg/mL	≧64 mg/L	≧64 mg/L	–

From patent publication US8853258B2, “C-linked hydroxamic acid derivatives useful as antibacterial agents” (Pfizer Inc., priority 2009, dated 2014)
